Marks after values point to notes of the source that are not given here. Ends that are not written are not given here.
Tests used:
[1] = tested on: LHRH; experiment: Trial K9-5: antibody response to LHRH by ELISA; format: in vivo, dog
[2] = tested on: LHRH; experiment: Trial K9-8: antibody response to LHRH by ELISA; format: in vivo, dog; details: Trial K9-8; T-cell-LHRH constructs named by their T-cell epitope
Description: A total of 35 dogs mixed sex were used in this trial. All had been previously vaccinated with a live CDV vaccine but had not been vaccinated against LHRH.
The T-Helper epitopes were linked to a truncated form of LHRH, containing amino acids 2 to 10 of the native 10 amino acid sequence, as shown below:
All vaccines were formulated as for Example 2, ie each 1 mL dose of vaccine contained 40nmoles of peptide, 150 μg Iscomatrix™, and thiomersal as preservative.
Where dogs were vaccinated with a pool of peptides, the concentration of each peptide was adjusted to give equal concentrations and a total amount of 40 nmoles of LHRH epitope per 1 mL dose.
All dogs were vaccinated with a 1 mL dose, delivered in the scruff of the neck. Vaccinations were given at 0 and 4 weeks and venous blood samples were obtained at intervals during the trial.
Effective T-cell help was determined by measuring the antibody response to LHRH by ELISA. Biological effectiveness of the peptide based vaccine was determined by measuring the levels of progesterone in female dogs and testosterone in male dogs.

[3] = tested on: LHRH; experiment: Trial in BALB/c mice: antibody response to LHRH by ELISA; format: in vivo; details: for antibody titres to LHRH: BALB/c mice
Description: The canine vaccines with CDV-F derived Th-epitopes and LHRH used in Example 3 were also used to immunise BALB/c mice to investigate if the Th-epitopes would be functional in a different animal species.
All vaccines were formulated as for Example 3 except that they were diluted further so that 100 μl doses contained 2.7 nmoles of peptide and 10 μg of Iscomatrix™ and thiomersol as preservative.
Mice were vaccinated with 100 μl of the vaccine at the base of tail. Vaccinations were given at 0 and 4 weeks and animals bled at intervals after each vaccination from the retro-orbital plexus. Effective T-cell help was determined by measuring the antibody response to LHRH by ELISA.

[4] = tested on: PBMCs from dogs immunised with CDV; experiment: T-cell proliferation after in vitro stimulation of PBMC with peptide pools, tested with autologous APCs and single peptides; format: cell-based, dog; details: for reaction with peripheral blood mononuclear cells: dogs of various breeds immunised with CDV
Description: An alternate strategy was used to increase the precursor frequency of specific T cells recognising the CDV peptides. Fresh PBMCs obtained from these hyperimmunised dogs were subjected to stimulation in vitro with pools of all 94 peptides for 30 minutes at 37° C. The cells were then washed to remove any excess peptides and cultured for 7 days. This population of T cells was then tested with autologous APCs with every single peptide as the antigen.
To confirm this observation, the same four dogs were bled again, five weeks after receiving the dose of killed virus. The PBMCs were stimulated in vitro with pools of either all 94 peptides or peptides 21-40 (because most of the activity was in this region) and after 7 days of culture the stimulated T cells were tested against individual peptides. Significant stimulatory indices were obtained with all peptides, confirming the above results. Four more dogs which received only one dose of 3 in 1 vaccine were tested using the in vitro stimulation method and all four dogs responded to the majority of peptides shown in Table 2.
Once again the same peptides and one additional peptide P32 were tested on cells from additional dogs.

[5] = Table 1, Beagle Foxhound (Dog #18), hyperimmunised, PBMC stimulated with pool of all 94 peptides, 7 days culture
[6] = Table 1, Beagle Foxhound (Dog #19)
[7] = Table 1, Beagle Foxhound (Dog #20)
[8] = Table 1, Beagle Foxhound (Dog #21)
[9] = Table 2, Beagle Foxhound (Dog #71), one dose of 3 in 1 vaccine
[10] = Table 3, Kelpie Foxhound (Dog #125)

| Substance | Stimulatory index ([4]; Table 5, Border Collie) | Stimulatory index ([4]; Table 5, Fox Terrier) | Stimulatory index ([4]; Table 5, Grey hound) | Stimulatory index ([4]; Table 5, Kelpie Pointer) | Stimulatory index ([4]; Table 5, Poodle Shitzu) | Stimulatory index ([4]; Table 5, Terrier Cross) | Stimulatory index [4, 5] | Stimulatory index [4, 6] | Stimulatory index [4, 7] | Stimulatory index [4, 8] | other results |
| --- | --- | --- | --- | --- | --- | --- | --- | --- | --- | --- | --- |
| ALNNRFQIKGVELKS-(NANP)3 (ALNNRFQIKGVELKSNANPNANPNANP; synthetic control peptide) |  |  |  |  |  |  |  |  |  |  | Anti LHRH Titres, 2 wks post boost, Average ([1]; group average): 1978; Anti LHRH Titres, 6 wks post boost, Average ([1]; group average): 1941; Anti LHRH Titres, Prebleeds, Average ([1]; group average): 1794; Anti LHRH Titres, 2 wks post boost, Range ([1]; group range): 1975-1982; Anti LHRH Titres, 6 wks post boost, Range ([1]; group range): 1936-1947; Anti LHRH Titres, Prebleeds, Range ([1]; group range): 1258-2559 |
| P8-LHRH: T-helper epitope P8 linked to truncated LHRH, amino acids 2 to 10 (SEQ ID NO: 29) (HWSYGLRPG; not fully specified (N-terminus); ends and bridges not checked; also: linked to T-helper epitope P8; listed as Homo sapiens) [Peptide P8-LHRH] |  |  |  |  |  |  |  |  |  |  | antibody responses to LHRH [2]: Low to undetectable antibody responses; Anti-LHRH antibody titre ([3]; 2 weeks post second vaccination, Mouse 1): <100; Anti-LHRH antibody titre ([3]; 2 weeks post second vaccination, Mouse 2): <100; Anti-LHRH antibody titre ([3]; 2 weeks post second vaccination, Mouse 3): <100; Anti-LHRH antibody titre ([3]; 2 weeks post second vaccination, Mouse 4): <100; Anti-LHRH antibody titre ([3]; 4 weeks post first vaccination, Mouse 1, 2.7 nmoles peptide, base of tail): <100; Anti-LHRH antibody titre ([3]; 4 weeks post first vaccination, Mouse 2): <100; Anti-LHRH antibody titre ([3]; 4 weeks post first vaccination, Mouse 3): <100; Anti-LHRH antibody titre ([3]; 4 weeks post first vaccination, Mouse 4): <100 |
| PRTSDRPVSYTMNRTRS (canine distemper virus; synthetic peptide from canine distemper virus fusion protein (CDV-F) designated peptide P8) | 2 | <2 | 2 | 2.8 | 100 | <2 |  |  |  |  | Stimulatory index ([4]; Table 2, Beagle Foxhound (Dog #70), one dose of 3 in 1 vaccine): 2.2; antibody titres to LHRH [3]: undetectable levels |
| PRYIATNGYLISNFDES (canine distemper virus; synthetic peptide from canine distemper virus fusion protein (CDV-F) designated peptide P62) | <2 | <2 | <2 | <2 | 24 | <2 | <2 | 51 | 5.6 | 4.2 | Stimulatory index [4, 9]: 3; Stimulatory index [4, 10]: 2.4; antibody responses to LHRH [2]: Strong antibody responses; antibody titres to LHRH [3]: undetectable levels |
| QPSTELEETRTSRARHS (canine distemper virus; synthetic peptide from canine distemper virus fusion protein (CDV-F) designated peptide P4) | 2 | <2 | 2 | 3.5 | 44 | 2 | 4.9 | <2 | 3.3 | 4.6 |  |
| QSLRTSLEQSNKAIEEI (canine distemper virus; synthetic peptide from canine distemper virus fusion protein (CDV-F) designated peptide P38) |  |  |  |  |  |  | 2.8 | 6.7 | 3.6 | 4.2 | Stimulatory index [4, 10]: 2.2 |
| RHSTTSAQRSTHYDPRT (canine distemper virus; synthetic peptide from canine distemper virus fusion protein (CDV-F) designated peptide P6) | 2 | <2 | <2 | <2 | 38 | <2 | 2.5 | <2 | 4 | 5.1 |  |
| SGRRQRRFAGVVLAGVA (canine distemper virus; synthetic peptide from canine distemper virus fusion protein (CDV-F) designated peptide P32) | <2 | <2 | 2 | <2 | <2 | <2 |  |  |  |  |  |
| SHQYLVIKLIPNASLIE (canine distemper virus; synthetic peptide from canine distemper virus fusion protein (CDV-F) designated peptide P24) |  |  |  |  |  |  | 5.8 | 9.9 | 2.8 | 29 | Stimulatory index [4, 9]: 3.2; Stimulatory index ([4]; Table 2, Beagle Foxhound (Dog #72), one dose of 3 in 1 vaccine): 2.2 |
| SPDKLLTFIASDTCPLV (canine distemper virus; synthetic peptide from canine distemper virus fusion protein (CDV-F) designated peptide P75) | <2 | <2 | <2 | <2 | 10 | <2 |  |  |  |  | Stimulatory index ([4]; Table 4, Beagle Foxhound #18): 2.5; Stimulatory index ([4]; Table 4, Beagle Foxhound #21): 7.2; Stimulatory index ([4]; Table 4, Poodle Shitzu): 10; reaction with peripheral blood mononuclear cells [4]: react strongly; antibody responses to LHRH [2]: Strong antibody responses; antibody titres to LHRH [3]: low antibody titres |
| SSKTQTHTQQDRPPQPS (canine distemper virus; synthetic peptide from canine distemper virus fusion protein (CDV-F) designated peptide P2) | 2 | <2 | <2 | 2.6 | 140 | <2 | 2* | <2 | 8 | 3.9 | antibody responses to LHRH [2]: Low to undetectable antibody responses; antibody titres to LHRH [3]: undetectable levels |
| TELLSIFGPSLRDPISA (canine distemper virus; synthetic peptide from canine distemper virus fusion protein (CDV-F) designated peptide P47) |  |  |  |  |  |  | 3.3 | 85.7 | 2.9 | 1.9 | Stimulatory index [4, 10]: 2.7 |
| TRSRKQTSHRLKNIPVH (canine distemper virus; synthetic peptide from canine distemper virus fusion protein (CDV-F) designated peptide P10) | 3 | 2.2 | 2 | 2.4 | 50 | 2.1 | 2.3 | <2 | 3.2 | 9.1 |  |
| TSTIINQSPDKLLTFIA (canine distemper virus; synthetic peptide from canine distemper virus fusion protein (CDV-F) designated peptide P74) | <2 | <2 | <2 | <2 | 4 | <2 |  |  |  |  | Stimulatory index ([4]; Table 4, Beagle Foxhound #20): 1.7; Stimulatory index ([4]; Table 4, Beagle Foxhound #21): 6.0; Stimulatory index ([4]; Table 4, Poodle Shitzu): 4.0; reaction with peripheral blood mononuclear cells [4]: react strongly |
| YKIMTRPSHQYLVIKLI (canine distemper virus; synthetic peptide from canine distemper virus fusion protein (CDV-F) designated peptide P23) |  |  |  |  |  |  |  |  |  |  | Stimulatory index [4, 10]: 3.2 |
